# Columns and labels:
# α-SMA [1] = test: α-SMA in hepatic tissues detected by immunohistochemistry; format: in vivo, mouse; conditions: CCl4-induced hepatic fibrosis mice; gliclazide solution 500 μM intraperitoneal
# Protocol: The mice are randomly divided into four groups including a, b, c, and d. • a. Normal control group. • b. Model group: mice are intragastrically administered with the CCl4 solution, 0.1 mL/20 g (i.e., 0.1. mL CC14 per 20 g of body weight of mice), twice a week for 8 weeks. • c. CCl4+gliclazide group: mice are intragastrically administered with the CCl4 solution alone, 0.1 mL/20 g, twice a week for 2 weeks; then the mice are given with the gliclazide solution and the CCl4 solution together for 6 weeks; and an administration method of the gliclazide solution is 0.2mL/20g and intraperitoneal injection once a day. • d. Gliclazide group: the gliclazide solution is intraperitoneally injected into mice for 8 weeks; and an administration method of the gliclazide solution is 0.2 mL/20 g and intraperitoneal injection once a day. […] An experimental method is as follows.
# HSCs-T6 = test: HSCs proliferation under co-culture of gliclazide and TGF-β1 detected by CCK8; format: cell-based, rat; conditions: TGF-β1 10 ng/mL, 48 hours, P<0.05
# Protocol: Experimental materials include HSCs-T6, a Dulbecco's modified eagle medium (DMEM) complete culture medium, a 96-well plate, a counting chamber (also referred to as hemocytometer), CCK-8 working solution, and the like. An experimental method is as follows. First, HSCs-T6 are cultured in the DMEM culture medium containing 10% fetal bovine serum, 1% double antibody (penicillin streptomycin solution) and 1% nonessential amino acid (NEAA), and the culture conditions include 37° C. and 5% CO2. The cells are digested by using trypsin for passage cultivation after the cells are converged to 80% to 90%. Next, the cells are inoculated in the plate, specifically, a density of […] cell suspension with a volume of 100 μL is added into each well of the 96-well plate, each group has 6 replicate wells. This experiment is divided into a control group and a TGF-β1 group, TGF-β1+gliclazide (the gliclazide used in this group has different concentrations of 50μM, 100μM, 150μM, and 200μM) medicament groups. After cell attachment, except for the control group and the TGF-β1 group, the other groups are added with gliclazide with the above concentrations respectively, and after 3 hours, TGF-β1 (10 ng/mL) is added to corresponding groups for stimulating HSCs of […]. After 48 hours of incubation, 100 μL mixed solution of “10% CCK8+90% culture medium” is added into each well. Then the incubation is performed at 37° C. for 1˜4 h, a wavelength is set at 450 nm, and an automatic enzyme analyzer is used to read and record absorbance values at the corresponding wavelength. The effects of gliclazide on cell proliferation are detected by CCK8, and the optimal action time and optimal medicament concentration are screened.
# LC3 [2] = test: LC3 in hepatic tissues detected by Western blotting; format: in vivo, mouse; conditions: CCl4-induced hepatic fibrosis mice; gliclazide solution 500 μM intraperitoneal
# Protocol: (§1) The mice are randomly divided into four groups including a, b, c, and d. • a. Normal control group. • b. Model group: mice are intragastrically administered with the CCl4 solution, 0.1 mL/20 g (i.e., 0.1. mL CC14 per 20 g of body weight of mice), twice a week for 8 weeks. • c. CCl4+gliclazide group: mice are intragastrically administered with the CCl4 solution alone, 0.1 mL/20 g, twice a week for 2 weeks; then the mice are given with the gliclazide solution and the CCl4 solution together for 6 weeks; and an administration method of the gliclazide solution is 0.2mL/20g and intraperitoneal injection once a day. • d. Gliclazide group: the gliclazide solution is intraperitoneally injected into mice for 8 weeks; and an administration method of the gliclazide solution is 0.2 mL/20 g and intraperitoneal injection once a day. Experimental materials include mouse hepatic tissues, a tweezer, a scissor, steel balls with a size of 2 millimeters (mm), a magnet, a cell lysis solution, a PBS solution, a bicinchoninic acid (BCA) protein assay kit, non-fat powdered milk, primary antibodies and corresponding secondary antibodies related to α-SMA, LC3, and p62. An experimental method is as follows. […] The optical density (OD) value at 560 nanometers (nm) is measured by using an enzyme-linked immunosorbent assay (ELISA) on the machine to calculate the concentration of the protein. […]
# α-SMA [3] = test: α-SMA in HSCs detected by Western blotting; format: cell-based, rat; conditions: HSCs-T6; gliclazide 100 βM; TGF-β1 10 ng/ml; 48 hours
# Protocol: (§2) Experimental materials include HSCs-T6, a DMEM complete culture medium, cell culture dishes, a cell lysis solution, a PBS solution, a BCA protein assay kit, non-fat powdered milk, primary antibodies and corresponding secondary antibodies related to α-SMA, LC3, and p62. Experimental method is as follows. First, this experiment is divided into a normal group, a TGF-β1 group, a gliclazide +TGF-β1 group, and a gliclazide group. The concentration of the TGF-β1 is 10 ng/ml, and the concentration of the gliclazide is 100 βM. The the HSCs-T6 is cultured by using the cell culture dish, and inoculated, administrated, added with TGF-β1 according to the conditions described in the embodiment 4. After 48 hours, the incubated cells are rinsed by the precooled PBS solution for 3-4 times, and residual PBS liquid is absorbed with a filter paper, 50 μL radioimmune precipitation assay (RIPA) buffer and 0.5 μL (100:1) phenylmethanesulfonyl fluoride (PMSF) with a concentration of 100millimoles per liter (mmol/L) are added in a 50 mL culture flask and placed on ice for 30 minutes. Then, the protein is scraped by a cell scraper from the culture flask and suctioned out into the EP tubes, and centrifuged at 12000 rpm for 30 minutes at 4° C. […] The OD value at 560 nm is measured by using ELISA on the machine to calculate the concentration of the protein. […]
# α-SMA [4] = test: α-SMA in HSCs added with autophagy agonist rapamycin, Western blotting; format: cell-based, rat; conditions: HSCs-T6; gliclazide 100 βM; TGF-β1 10 ng/ml; 48 hours; P<0.05
# Protocol: Experimental materials include HSCs-T6, rapamycin, a DMEM complete culture medium, cell culture dishes, a cell lysis solution, a PBS solution, a BCA protein assay kit, non-fat powdered milk, primary antibodies and corresponding secondary antibodies related to α-SMA, LC3, and p62.
# Experimental method is as follows. First, this experiment is divided into a normal group, a TGF-β1 group, a gliclazide +TGF-β1 group, and a gliclazide +TGF-β1 +rapamycin group. The concentration of the TGF-β1 is 10 ng/ml, the concentration of the gliclazide is 100 βM, and the concentration of the rapamycin is 100 nanomoles per liter (nM). The TGF-β1 is added at the same time as that in the embodiment 5, and rapamycin and gliclazide are added simultaneously. After 48 hours of incubation, the above groups are detected by the BCA protein assay kit and Western blotting.
# p62 [5] = test: p62 in HSCs detected by Western blotting; format: cell-based, rat; conditions: HSCs-T6; gliclazide 100 βM; TGF-β1 10 ng/ml; 48 hours
# Protocol: as §2
# LC3 [6] = test: LC3 in HSCs detected by Western blotting; format: cell-based, rat; conditions: HSCs-T6; gliclazide 100 βM; TGF-β1 10 ng/ml; 48 hours
# Protocol: as §2
# [7] = tested on: CCl4-induced hepatic fibrosis mice; test: CCl4-induced mouse hepatic fibrosis, HE staining and Sirius-red staining of hepatic tissue; format: in vivo; conditions: gliclazide solution 500 μM, C57 mice
# Protocol: Experimental materials include 60 healthy male C57 mice (20-25 g per mouse, purchased from Chongqing […] Biotechnology Co., Ltd.), gavage needles, 1 milliliter (mL) syringes, CCI4 solution, olive oil, and gliclazide solution. An experimental method is as follows. The CCl4 solution is prepared by dissolving CCl4 in the olive oil (a volume ratio of CCl4 to olive oil is 1:4), and the prepared CCl4 solution should be used immediately. The gliclazide solution is prepared by dissolving gliclazide in physiological saline, the concentration of the gliclazide solution is 500 micromoles per liter (μM), and the prepared gliclazide solution should be used immediately. The mice are randomly divided into four groups including a, b, c, and d. • a. Normal control group. • b. Model group: mice are intragastrically administered with the CCl4 solution, 0.1 mL/20 g (i.e., 0.1. mL CC14 per 20 g of body weight of mice), twice a week for 8 weeks. • c. CCl4+gliclazide group: mice are intragastrically administered with the CCl4 solution alone, 0.1 mL/20 g, twice a week for 2 weeks; then the mice are given with the gliclazide solution and the CCl4 solution together for 6 weeks; and an administration method of the gliclazide solution is 0.2mL/20g and intraperitoneal injection once a day. • d. Gliclazide group: the gliclazide solution is intraperitoneally injected into mice for 8 weeks; and an administration method of the gliclazide solution is 0.2 mL/20 g and intraperitoneal injection once a day. The mice are sacrificed at the 2nd, 4th, 6th and 8th weeks of modeling respectively, and one mouse in each group is sacrificed each time. Hepatic samples obtained from the sacrificed mice are taken out and stored in liquid nitrogen at -80 Celsius degrees (° C.), and the other hepatic samples are fixed in paraformaldehyde with a concentration of 4% for 24 hours, then the other hepatic samples are embedding in paraffin. The degrees of severity of hepatic fibrosis are observed by appearance, Sirius-red staining, and hematoxylin-eosin (HE) staining. […]
# α-SMA [8] = test: α-SMA in hepatic tissues detected by Western blotting; format: in vivo, mouse; conditions: CCl4-induced hepatic fibrosis mice; gliclazide solution 500 μM intraperitoneal
# Protocol: as §1
# p62 [9] = test: p62 in hepatic tissues detected by Western blotting; format: in vivo, mouse; conditions: CCl4-induced hepatic fibrosis mice; gliclazide solution 500 μM intraperitoneal
# Protocol: as §1
# [10] = CCl4+gliclazide group vs model group, 0.2 mL/20 g intraperitoneal once a day for 6 weeks
structure (smiles),measurement,setting,value
Cc1ccc(S(=O)(=O)NC(=O)NN2CC3CCCC3C2)cc1 (centres unmarked) [gliclazide],expression of α-SMA in hepatic tissues (immunohistochemistry),α-SMA [1],down-regulate
same,proliferation of HSC-T6 induced by TGF-β1 (CCK8),HSCs-T6; gliclazide 100 μM,inhibits the proliferation
same,proliferation of HSC-T6 induced by TGF-β1 (CCK8),HSCs-T6; gliclazide 150 μM,inhibits the proliferation
same,proliferation of HSC-T6 induced by TGF-β1 (CCK8),HSCs-T6; gliclazide 200 μM,inhibits the proliferation
same,expression of LC3 in hepatic tissue (Western blotting),LC3 [2],significantly decreases
same,expression of α-SMA in HSCs (Western blotting),α-SMA [3],significantly decreases
same,"protein expression level of α-SMA, gliclazide +TGF-β1 group vs TGF-β1 group",α-SMA [4],significantly lower
same,expression level of autophagy substrate p62 in HSCs (Western blotting),p62 [5],significantly increases
same,expression of LC3 in HSCs (Western blotting),LC3 [6],significantly decreases
same,degree of hepatic fibrosis (HE staining),[7]; [10],significantly decreased
same,degree of hepatic tissue injury (HE staining),[7]; [10],significantly decreased
same,collagen fibers in hepatic tissue (Sirius-red staining),"[7]; gliclazide group without CCl4, 0.2 mL/20 g intraperitoneal once a day for 8 weeks",no obvious collagen fibers are observed
same,expression of α-SMA in hepatic tissue (Western blotting),α-SMA [8],significantly decreases
same,expression level of autophagy substrate p62 in hepatic tissue (Western blotting),p62 [9],significantly increases

# Reference: patent US20240390395A1, “APPLICATION OF ION CHANNEL BLOCKER IN TREATMENT AND/OR PREVENTION OF HEPATIC FIBROSIS” (Affiliated Hospital of Zunyi Medical University, priority 2023, published 2024)
